Measured values reported in PMC6150735, “Molecular Docking-Based Design and Development of a Highly Selective Probe Substrate for UDP-glucuronosyltransferase 1A10” (Molecular Pharmaceutics, 2018).
Entries after “also recorded” stand apart in the source; their conditions may differ.

How the values were obtained:
[1] = target: T1, UGT1A10 mutant 1A10-H210M (Homo sapiens, UniProt Q9HAW8, H210M); assay: Glucuronidation kinetics by UGT1A10 mutant 1A10-H210M (fluorescence decrease, 96-well plate); format: biochemical; conditions: mutant versus wild-type UGT1A10
T1 construct: His-tag; made in house; host or cells: baculovirus-infected SF9 insect cells
T1 sequence (Q9HAW8 26-530 H210M): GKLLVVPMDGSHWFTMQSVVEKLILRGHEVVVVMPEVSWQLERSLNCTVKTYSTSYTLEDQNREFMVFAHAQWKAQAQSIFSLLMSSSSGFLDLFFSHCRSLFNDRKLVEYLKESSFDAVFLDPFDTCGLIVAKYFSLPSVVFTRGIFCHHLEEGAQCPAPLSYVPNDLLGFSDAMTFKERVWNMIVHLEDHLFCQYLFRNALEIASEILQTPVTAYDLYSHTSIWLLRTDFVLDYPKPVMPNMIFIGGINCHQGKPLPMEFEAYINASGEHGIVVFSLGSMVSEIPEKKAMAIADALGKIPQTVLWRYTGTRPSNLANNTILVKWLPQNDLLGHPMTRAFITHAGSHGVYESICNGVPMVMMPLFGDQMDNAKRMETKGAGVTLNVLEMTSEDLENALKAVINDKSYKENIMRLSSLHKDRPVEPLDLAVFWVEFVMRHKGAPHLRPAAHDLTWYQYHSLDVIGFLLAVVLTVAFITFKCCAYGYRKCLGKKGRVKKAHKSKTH
Experimental: The UGT1A10 mutant 1A10-H210 M was prepared according to the QuikChange methodology, using the cloned UGT1A10 in pFastBac[42] as a template and the following two oligonucleotides:
The entire coding sequence of UGT1A10 in the mutant clone was sequenced, and subsequently, recombinant baculovirus was prepared and used to express the mutant enzyme in baculovirus-infected SF9 insect cells.
The incubation mixtures for glucuronidation assays contained 100 mM Tris-HCl buffer pH 7.4, 2.5 mM MgCl2, 0.5 mM UDPGA, recombinant UGT, or microsomes as the enzyme source and 0–15 μM of the test aglycone substrate. When the incubation mixtures contained microsomes, alamethicin was used at a final concentration of 12.5 μg/mL, but it was not included in the recombinant enzyme assays.[43] In the first experiments three negative control samples were tested, namely (i) without the substrate 7-hydroxycoumarin derivative, (ii) without the cofactor UDPGA, or (iii) without the enzyme source. In subsequent experiments, the control samples lacked the enzyme source since it gave the highest fluorescence background. […] Fluorescence spectra (excitation 200–420 nm; emission 400–600 nm) or fluorescence decrease at 390 nm excitation and 460 nm emission, were measured in these preliminary experiments, using a Shimadzu RF-5000 spectrophotofluorometer.
Most of the glucuronidation assays were carried out in 96 multiwell plate format, and incubations were carried out in 100 μL and at 37 °C, in the presence of Tris–HCl buffer pH 7.4, UDPGA, and the tested 7-hydroxycoumarin derivative, at the indicated concentrations. Fluorescence decline in the multiwell plate experiments was monitored every other minute, for 40 min, using an excitation filter at 405 nm and detection at 460 nm, in a Victor2 1420 Multilabel counter (PerkinElmer, Life Sciences, Turku, Finland). The fluorescence values were transformed into molarity using the aglycone substrates for making the respective standard curves. […] Enzyme catalyzed glucuronidation rate was calculated by subtracting the blank value from the full reaction value. […]

human UGTs = assay: Recombinant human UGT screen: glucuronidation rates across human UGTs; format: biochemical; conditions: 10 μM aglycone
Experimental: Recombinant human UGTs 1A1, 1A3, 1A6, 1A7, 1A8, 1A9, 1A10, 2A1, 2A2, 2A3, 2B4, 2B10, 2B7, and 2B17 were produced, as His-tagged proteins, in baculovirus-infected insect cells as previously described.[37]−[39] The relative expression level of each of these recombinant UGTs was evaluated by immunodetection, using monoclonal antibody against the His-tag, as described elsewhere.[40] A numeric value of 1.0 was given to the expression level of UGT1A8 and the relative expression level of each of the other UGTs was related to this value. Normalized activities were obtained by dividing the glucuronidation rate values by the relative expression level of the tested UGT. In addition, UGTs 1A4, 2B10, and 2B15 were purchased from Corning Life Sciences (New York) and are marked, in Figure 5, with a “C” to indicate that they are commercial enzymes. The expression levels of the UGTs in the commercial samples could not be determined, so their protein concentration was used to calculate the reaction rate.
(§1) The incubation mixtures for glucuronidation assays contained 100 mM Tris-HCl buffer pH 7.4, 2.5 mM MgCl2, 0.5 mM UDPGA, recombinant UGT, or microsomes as the enzyme source and 0–15 μM of the test aglycone substrate. When the incubation mixtures contained microsomes, alamethicin was used at a final concentration of 12.5 μg/mL, but it was not included in the recombinant enzyme assays.[43] In the first experiments three negative control samples were tested, namely (i) without the substrate 7-hydroxycoumarin derivative, (ii) without the cofactor UDPGA, or (iii) without the enzyme source. In subsequent experiments, the control samples lacked the enzyme source since it gave the highest fluorescence background. Preliminary experiments were done under different conditions than most of the later assays, namely in 2.5 mL of 100 mM phosphate buffer pH 7.4, containing 500 μg pig liver microsomes, 1.0 μM compound 6 and 0.5 mM UDPGA, at room temperature. Fluorescence spectra (excitation 200–420 nm; emission 400–600 nm) or fluorescence decrease at 390 nm excitation and 460 nm emission, were measured in these preliminary experiments, using a Shimadzu RF-5000 spectrophotofluorometer.
(§2) Most of the glucuronidation assays were carried out in 96 multiwell plate format, and incubations were carried out in 100 μL and at 37 °C, in the presence of Tris–HCl buffer pH 7.4, UDPGA, and the tested 7-hydroxycoumarin derivative, at the indicated concentrations. Fluorescence decline in the multiwell plate experiments was monitored every other minute, for 40 min, using an excitation filter at 405 nm and detection at 460 nm, in a Victor2 1420 Multilabel counter (PerkinElmer, Life Sciences, Turku, Finland). The fluorescence values were transformed into molarity using the aglycone substrates for making the respective standard curves. Slopes of the substrate concentration decrease per minute were calculated using linear regression analysis, in which the linear part of the kinetic assay indicated the glucuronidation rate. Enzyme catalyzed glucuronidation rate was calculated by subtracting the blank value from the full reaction value. The intra-assay variability of the kinetic assays was 6% when compound 6 was used as the aglycone substrate. Kinetic analyses were also performed in the same 96 multiwell plates format, with excitation filter at 405 nm and detection at 460 nm, using 6–8 different substrate concentrations per substrate and two different protein concentrations for both the wild-type and mutant UGT1A10. The higher concentrations, 13.5 mg/L for UGT1A10 and 12.0 mg/L for the UGT1A10 mutant, were used when the substrates were HFC, compounds 4 and 6, whereas the lower protein concentrations, 6.75 and 6.0 mg/L for UGT1A10 and the mutant, respectively, were used when the substrates were compounds 1, 2, 3, and 5.

[2] = tested on: human intestinal microsomes (HIM); assay: Glucuronidation by human intestinal microsomes (HIM); format: in vitro ADME; conditions: 10 μM aglycone
Experimental: (§3) A commercial HLM pool (cat no:452210, BD Gentest, Bedford, MA) and human intestine microsomes (HIM) pool (lot. no 1110189, XenoTech, Kansas City, KS) were purchased. Pig liver samples were prepared from untreated female pigs that were used for practicing surgical procedures at the University of Kuopio (currently: University of Eastern Finland, Kuopio campus). Other animal liver microsomes were prepared as described previously.[41] The Ethics Committee for Animal Experiments, University of Kuopio, approved these experiments.
as §1, §2

[3] = tested on: human liver microsomes (HLM); assay: Glucuronidation by human liver microsomes (HLM); format: in vitro ADME; conditions: 10 μM aglycone
Experimental: as §3, §1, §2

[4] = Absorbance spectra of coumarin derivatives; format: physicochemical; conditions: 10 μM, 100 mM Tris–HCl pH 7.4, 10% dimethyl sulfoxide
Experimental: The absorbance spectra of 10 μM coumarin derivatives at 100 mM Tris–HCl pH 7.4 containing 10% dimethyl sulfoxide were measured using a Hitachi U-2000 Spectrophotometer (Tokyo, Japan). Excitation and emission fluorescence spectra of 0.1 μM coumarin derivatives in 100 mM Tris-HCl pH 7.4 were measured using a Shimadzu RF-5000 spectrophotofluorometer (Tokyo, Japan). The excitation spectra was from 200 to 420 at 460 nm emission and the emission spectra was from 400 to 600 at 390 nm excitation (data in Supplementary Table S1 and Figures S1 and S2). The effect of pH on fluorescence intensity was determined at 405 nm excitation and 460 nm emission, in the presence of 1.5% trichloroacetic acid, 100 mM phosphate buffers at pH 5, 6, 7, 8, and 9, or 1.6 M glycine–NaOH pH 10.4.

[5] = Excitation and emission fluorescence spectra of coumarin derivatives; format: physicochemical; parameters: dose or concentration left out as unconfirmed
Experimental: The absorbance spectra of 10 μM coumarin derivatives at 100 mM Tris–HCl pH 7.4 containing 10% dimethyl sulfoxide were measured using a Hitachi U-2000 Spectrophotometer (Tokyo, Japan). […] The excitation spectra was from 200 to 420 at 460 nm emission and the emission spectra was from 400 to 600 at 390 nm excitation (data in Supplementary Table S1 and Figures S1 and S2). The effect of pH on fluorescence intensity was determined at 405 nm excitation and 460 nm emission, in the presence of 1.5% trichloroacetic acid, 100 mM phosphate buffers at pH 5, 6, 7, 8, and 9, or 1.6 M glycine–NaOH pH 10.4.

UGT1A1 = assay: Recombinant human UGT screen: glucuronidation by UGT1A1; format: biochemical; conditions: 10 μM aglycone, recombinant UGTs
Experimental: Recombinant human UGTs 1A1, 1A3, 1A6, 1A7, 1A8, 1A9, 1A10, 2A1, 2A2, 2A3, 2B4, 2B10, 2B7, and 2B17 were produced, as His-tagged proteins, in baculovirus-infected insect cells as previously described.[37]−[39] The relative expression level of each of these recombinant UGTs was evaluated by immunodetection, using monoclonal antibody against the His-tag, as described elsewhere.[40] A numeric value of 1.0 was given to the expression level of UGT1A8 and the relative expression level of each of the other UGTs was related to this value. Normalized activities were obtained by dividing the glucuronidation rate values by the relative expression level of the tested UGT. […] The expression levels of the UGTs in the commercial samples could not be determined, so their protein concentration was used to calculate the reaction rate.
The incubation mixtures for glucuronidation assays contained 100 mM Tris-HCl buffer pH 7.4, 2.5 mM MgCl2, 0.5 mM UDPGA, recombinant UGT, or microsomes as the enzyme source and 0–15 μM of the test aglycone substrate. […] In subsequent experiments, the control samples lacked the enzyme source since it gave the highest fluorescence background. […] Fluorescence spectra (excitation 200–420 nm; emission 400–600 nm) or fluorescence decrease at 390 nm excitation and 460 nm emission, were measured in these preliminary experiments, using a Shimadzu RF-5000 spectrophotofluorometer. […]

SMILES | Change of Km by the H210M mutation (in words) [1] | UGT(s) that primarily glucuronidate the substrate (human UGTs; control substrates) | Glucuronidation rate, HLM compared with HIM (in words) [2] | Selectivity among human UGTs (human UGTs; other UGTs at very low rates) | Glucuronidation by HLM (in words) [3] | Amax [4] [nm] | ε abs [4] [M⁻¹ cm⁻¹] | Fluorescence EMmax [5] [nm] | Fluorescence EXmax [5] [nm] | Glucuronidation rate by UGT1A1 relative to the corresponding UGT1A10 rate (UGT1A1)
O=c1cc(C(F)(F)F)c2ccc(O)cc2o1 [HFC, 4-(trifluoromethyl)-7-hydroxycoumarin, reference compound] | increase | UGT1A6 and UGT1A10 | much higher rates by HLM than by HIM | – | – | – | – | – | – | –
O=c1oc2cc(O)ccc2cc1-c1ccc(O)cc1 [Compound 2, 7-hydroxy-3-(4-hydroxyphenyl)-2H-chromen-2one] | considerably increased | – | – | selective for UGT1A10 | not glucuronidated by HLM at all, or only at very low rates; also recorded: very low or below the detection limit | 352 | 20000 | 475 | 395 | –
O=c1oc2cc(O)ccc2cc1-c1ccc(F)cc1 [Compound 1, 7-hydroxy-3-(4-fluorophenyl)-2H-chromen-2-one] | – | – | – | – | – | 344 | 19000 | 466 | – | about 40%
COc1ccc(-c2cc3ccc(O)cc3oc2=O)cc1 [Compound 3, 7-hydroxy-3-(4-methoxyphenyl)coumarin] | – | – | – | – | – | 350 | 17300 | 472 | 368 | ~20%
